Patent publication US20210238138A1, “Method for improving nucleation of crystals from solution” (Université Libre de Bruxelles, priority 2018, published 2021)
Converted amounts (≈) assume the structure as drawn.

What was measured:
[1] = Solubility temperature and spontaneous nucleation temperature of aspirin solution; type: physicochemical; conditions: 200 mg/mL in 50/50 vol % ethanol/water
Text: The transition time is defined as the time necessary to reach crystallization conditions in the used setup (i.e. time for a fluid particle flowing in the liquid to get from undersaturated conditions to nucleation conditions). Therefore, this time is at a given concentration dominated by the difference in temperature between the solubility temperature and the metastable zone width or MSZW. At temperatures below this MSZW the solute in solution starts to nucleate spontaneously. […] (both measured). The transition time is then defined as the time needed to overcome this 20° C. difference in temperature.

[2] = Maturing of acetylsalicylic acid crystals (growth treatment, early filtration); type: physicochemical; conditions: 3 m tubing
[3] = Solubility of Brivaracetam in IPAc; conditions: IPAc (isopropyl acetate), organic solvent or mixture
[4] = test 45: 200 mg/mL ethanol/water 50/50 vol %, Tc 10° C., σ 6.7, 30 mL/min, no restrictions, Growth to equilibrium in tubing
[5] = test 46: 200 mg/mL ethanol/water 50/50 vol %, Tc 10° C., σ 6.7, 30 mL/min, no restrictions, filtration on 16 μm glass filter after 60 s
[6] = test 47: 200 mg/mL ethanol/water 50/50 vol %, Tc 10° C., σ 6.7, 30 mL/min, no restrictions, filtration on 16 μm glass filter after 90 s
[7] = test 48: 200 mg/mL ethanol/water 50/50 vol %, Tc 10° C., σ 6.7, 30 mL/min, no restrictions, Addition to saturated solution

Row | Structure (SMILES) | Solubility temperature [1] | Temperature at which spontaneous nucleation starts [1] | Crystal length [2, 4] | Crystal width [2, 4] | Crystal length [2, 5] | Crystal width [2, 5] | Crystal length [2, 6] | Crystal width [2, 6] | Crystal length [2, 7] | Crystal width [2, 7] | Crystal length ([2]; test 50: 200 mg/mL ethanol/water 50/50 vol %, Tc 15° C., σ 4.5, 30 mL/min, restriction 2 of 250 μm ID, filtration At exit) | Sphere Equivalent Diameter ([2]; test 51: 200 mg/mL ethanol/water 50/50 vol %, Tc 15° C., σ 4.5, 30 mL/min, restriction 2 of 250 μm ID, filtration After 120 s, thickness set to ⅕ of width) | solubility ([3]; 20 °C) | solubility ([3]; 45 °C)
1 | CC(=O)Oc1ccccc1C(=O)O [Acetylsalicylic acid, acetylsalicylic acid] | 40 °C | 20 °C | 500 ± 230 μm | 69 ± 27 μm | 359 ± 190 μm | 66 ± 35 μm | 646 ± 391 μm | 38 ± 23 μm | 172 ± 66 μm | 38 ± 13 μm | 63 ± 36 μm | 42 ± 11 μm |  | 
2 | CCC[C@@H]1CC(=O)N([C@@H](CC)C(N)=O)C1 [Brivaracetam] |  |  |  |  |  |  |  |  |  |  |  |  | 136 mg/mL (≈ 641 mM) | ~1100 mg/mL (≈ 5180 mM)
